Source: patent US12312370B2, “Immunoproteasome inhibitors” (Principia Biopharma Inc., priority 2017, dated 2025)
pIC50: −log10 of the molar value.

Assays:
Assay type in all cases: biochemical
[1] = biological target: immunoproteasome LMP7/B5i subunit (Homo sapiens, UniProt P28062); test: Caliper-based proteasome enzymatic activity assay, LMP7; details: human recombinant immunoproteasome 0.3 nM, FAM-labeled peptide substrate 1 μM, rt 3 h; read-out: LMP7 subunit IC50
[2] = biological target: immunoproteasome LPM2/β1i subunit (Homo sapiens, UniProt P28065); test: Caliper-based proteasome enzymatic activity assay, LMP2; details: human recombinant immunoproteasome 0.3 nM, FAM-labeled peptide substrate 1 μM, rt 2 h
[3] = biological target: constitutive proteasome β5c unit (Homo sapiens, UniProt P28074); test: Caliper-based proteasome enzymatic activity assay, β5c; details: human recombinant constitutive proteasome 0.3 nM, FAM-labeled peptide substrate 1 μM, rt 3 h; read-out: β5c subunit IC50

Row | Compound | pIC50 [1] | pIC50 [2] | pIC50 [3]
1 | CC(C)(C)C=C(C#N)C(=O)N1CCCC[C@H]1CNC(=O)N[C@@H](Cc1ccccc1)B(O)O [Example 40, ((R)-1-(3-(((S)-1-(2-cyano-4,4-dimethylpent-2-enoyl)piperidin-2-yl)methyl)ureido)-2-phenylethyl)boronic acid] | 6.17 | < 5.30 | < 5.30
2 | CC(C)(C=C(C#N)C(=O)N1CCCC[C@@H](OC(=O)N[C@@H](Cc2ccccc2)B(O)O)C1)N1CCOC2(CC2)C1 [Example 133, ((R)-1-(((((R)-1-(2-cyano-4-methyl-4-(4-oxa-7-azaspiro[2.5]octan-7-yl)pent-2-enoyl)azepan-3-yl)oxy)carbonyl)amino)-2-phenylethyl)boronic acid] | 8.85 | – | 6.03
3 | CC(C)(C=C(C#N)C(=O)N1CCCC[C@@H](OC(=O)N[C@@H](Cc2ccccc2)B(O)O)C1)N1CC2CC(C1)O2 [Example 134, ((1R)-1-(((((3R)-1-(4-(6-oxa-3-azabicyclo[3.1.1]heptan-3-yl)-2-cyano-4-methylpent-2-enoyl)azepan-3-yl)oxy)carbonyl)amino)-2-phenylethyl)boronic acid] | 8.72 | – | 6.00
4 | CC(C)(C=C(C#N)C(=O)N1CCC[C@@](C)(OC(=O)N[C@@H](Cc2ccccc2)B(O)O)C1)N1CCC(F)(F)C1 (single isomer, unassigned) [Example 93] | 6.19 | – | < 5.30
5 | C=CC(=O)N1C2CCC1(COC(=O)N[C@@H](CCc1ccccc1)B(O)O)CC2 [Example 71, (R)-(1-((((7-acryloyl-7-azabicyclo[2.2.1]heptan-1-yl)methoxy)carbonyl)amino)-3-phenylpropyl)boronic acid] | 6.28 | – | < 5.30
6 | CC(C)(C=C(C#N)C(=O)N1C2CCC1(COC(=O)N[C@@H](Cc1ccccc1)B(O)O)CC2)N1CCOCC1 [Example 81] | 8.74 | – | 5.65
7 | CC1(C)CCN(C(C)(C)C=C(C#N)C(=O)N2CCC[C@H](OC(=O)N[C@@H](Cc3ccc(F)cc3)B(O)O)C2)C1 [Example 72, ((R)-1-(((((S)-1-(2-cyano-4-(3,3-dimethylpyrrolidin-1-yl)-4-methylpent-2-enoyl)piperidin-3-yl)oxy)carbonyl)amino)-2-(4-fluorophenyl)ethyl)boronic acid] | 8.27 | – | 6.07
8 | CC(C)C=C(C#N)C(=O)N1CCC[C@@H]1COC[C@H](NCC(F)(F)F)C(=O)N[C@@H](Cc1ccccc1)B(O)O [Example 23, (R)-1-((S)-3-(((R)-1-(2-cyano-4-methylpent-2-enoyl)pyrrolidin-2-yl)methoxy)-2-(2,2,2-trifluoroethylamino)propanamido)-2-phenylethylboronic acid] | 7.46 | – | 6.35
9 | CC(C)(C=C(C#N)C(=O)N1CC[C@@H]1COC(=O)N[C@@H](Cc1ccccc1)B(O)O)N1CCC(F)(F)C1 [Example 54, ((R)-1-(((((R)-1-(2-cyano-4-(3,3-difluoropyrrolidin-1-yl)-4-methylpent-2-enoyl)azetidin-2-yl)methoxy)carbonyl)amino)-2-phenylethyl)boronic acid] | 8.57 | – | 6.30

Results, then the compound that gave them:

Row | pIC50 [1] | pIC50 [2] | pIC50 [3] | Compound
10 | 8.09 | – | 8.03 | CC(C)C=C(C#N)C(=O)NCCCC[C@H](NC(=O)[C@@H](NC(=O)C(C)C)[C@@H](C)O)C(=O)N[C@@H](CC(C)C)B(O)O [Example 9, ((R)-1-((S)-6-(2-cyano-4-methylpent-2-enamido)-2-((2S,3R)-3-hydroxy-2-isobutyramidobutanamido)hexanamido)-3-methylbutyl)boronic acid]
11 | 8.80 | – | 5.87 | CC(C)(C=C(C#N)C(=O)N1CCCC[C@@H](OC(=O)N[C@@H](Cc2ccccc2)B(O)O)C1)N1CCC(F)(F)C1 (single isomer, unassigned) [Example 105]
12 | 7.85 | – | 7.63 | CC(C)C=C(C#N)C(=O)NCCCC[C@H](NC(=O)[C@H](C)NC(=O)C(C)C)C(=O)N[C@@H](Cc1ccccc1)B(O)O [Example 4, ((R)-1-((S)-6-(2-cyano-4-methylpent-2-enamido)-2-((S)-2-isobutyramidopropanamido)hexanamido)-2-phenylethyl)boronic acid]
13 | 7.53 | – | 8.07 | CC(C)C=C(C#N)C(=O)NCCCC[C@H](NC(=O)c1cc(Cl)ccc1Cl)C(=O)N[C@@H](CC(C)C)B(O)O [Example 3, ((R)-1-((S)-6-(2-cyano-4-methylpent-2-enamido)-2-(2,5-dichlorobenzamido)hexanamido)-3-methylbutyl)boronic acid]
14 | 7.43 | – | < 5.30 | C=CC(=O)N1C[C@@H](F)[C@@H](OC(=O)N[C@@H](Cc2ccccc2)B(O)O)C1 [Example 124, ((R)-1-(((((3S,4R)-1-acryloyl-4-fluoropyrrolidin-3-yl)oxy)carbonyl)amino)-2-phenylethyl)boronic acid]
15 | 8.70 | – | 5.93 | C[C@H]1CN(C(C)(C)C=C(C#N)C(=O)N2C3CCC2(COC(=O)N[C@@H](Cc2ccccc2)B(O)O)CC3)CCO1 [Example 122, ((R)-1-((((7-(2-cyano-4-methyl-4-((S)-2-methylmorpholino)pent-2-enoyl)-7-azabicyclo[2.2.1]heptan-1-yl)methoxy)carbonyl)amino)-2-phenylethyl)boronic acid]
16 | 8.74 | – | 5.95 | CC(C)(C=C(C#N)C(=O)N1CC[C@H](OC(=O)N[C@@H](Cc2ccccc2)B(O)O)C1)N1CCC(F)(F)C1 [Example 89, ((R)-1-(((((S)-1-(2-cyano-4-(3,3-difluoropyrrolidin-1-yl)-4-methylpent-2-enoyl)pyrrolidin-3-yl)oxy)carbonyl)amino)-2-phenylethyl)boronic acid]
17 | 8.55 | – | 5.69 | C[C@H]1CN(C(C)(C)C=C(C#N)C(=O)N2CCCC[C@@H](OC(=O)N[C@@H](Cc3ccccc3)B(O)O)C2)CCO1 [Example 130, ((R)-1-(((((R)-1-(2-cyano-4-methyl-4-((S)-2-methylmorpholino)pent-2-enoyl)azepan-3-yl)oxy)carbonyl)amino)-2-phenylethyl)boronic acid]
18 | 8.11 | – | 5.71 | CC(C)(C=C(C#N)C(=O)N1CCC[C@H](OC(=O)N[C@@H](Cc2ccccc2)B(O)O)C1)N1CCN2C(=O)OC[C@@H]2C1 [Example 97, ((R)-1-(((((S)-1-(2-cyano-4-methyl-4-((S)-3-oxotetrahydro-3H-oxazolo[3,4-a]pyrazin-7(1H)-yl)pent-2-enoyl)piperidin-3-yl)oxy)carbonyl)amino)-2-phenylethyl)boronic acid]
19 | 9.05 | – | 5.48 | CC(C)(C=C(C#N)C(=O)N1C2CCC1(COC(=O)N[C@@H](CCc1ccccc1)B(O)O)CC2)N1CCC(F)(F)C1 [Example 77, (R)-(1-((((7-(2-cyano-4-(3,3-difluoropyrrolidin-1-yl)-4-methylpent-2-enoyl)-7-azabicyclo[2.2.1]heptan-1-yl)methoxy)carbonyl)amino)-3-phenylpropyl)boronic acid]
20 | < 5.30 | – | < 5.30 | C=CC(=O)N1CCCC(C)(OC(=O)N[C@@H](Cc2ccc(F)cc2)B(O)O)C1 (mixture of isomers) [Example 91, ((1R)-1-((((1-acryloyl-3-methylpiperidin-3-yl)oxy)carbonyl)amino)-2-(4-fluorophenyl)ethyl)boronic acid]
